Like-named read-outs stand apart in the source and are kept apart here.
Key:
HIV-1NL4-3 [1] = experiment: HIV-1 infectivity in TZM-bl cells (F-Luc); assay type: cell-based
HIV-1NL4-3 [2] = experiment: Time-of-addition assay in TZM-bl cells; assay type: cell-based; conditions: HIV-1NL4-3 MOI 1, 9 and 13 1.5 μM, T-20 1 µM, triptolide 5 nM, ARVs 1 µM, F-Luc at 54 h
[3] = system: proviral DNA integrated to the host chromosome; experiment: Integrated proviral DNA, nested Alu-PCR in A3.01 cells; assay type: cell-based, HIV-1; conditions: compounds 5 µM, 40 h after infection
Description: Fig 5 (A) Time-of-addition assay. […] Subsequently, the cells were treated with the compounds at the indicated time points (0, 1, 2, 4, 6, 8, 10, 12, 24, 30, 36, 42, and 48 h) after HIV-1 infection. The final concentrations of compounds are described in Materials and Methods. Viral activity according to the timing of drug addition was measured as F-Luc activity at 54 h after infection. The relative activities are represented as the mean ± SD (n = 3) compared with the activity observed 54 h post-infection. The relative time frames associated with each HIV-1 infection step are defined based on the time frame of susceptibility to the drug that blocks that particular infection step. […] At 16 h after infection, the viral reverse transcription (RT) product (viral cDNA) level was determined by quantitative real-time PCR (RT-qPCR) using gag and 18S rRNA primer sets and represented as the mean ± SD (n = 3) normalized against the amount of the 18S rRNA compared with the DMSO control. **P < 0.01 compared with the vehicle (DMSO). (C) An in vitro integrase (IN) assay was performed with 10 µM of the indicated compounds following the manufacturer’s protocol. **P < 0.01 compared with vehicle (DMSO). (D) A3.01 cells were infected with HIV-1 upon treatment with the indicated compounds (5 µM) and ARVs (EFV and DTG) as the experimental controls. At 40 h after infection, cellular chromosomal DNA was purified, and the integrated proviral DNA was detected through nested Alu-PCR amplification.
The activity of HIV-1 RT was determined as previously described with some minor modifications ([66][–][68]). In brief, HIV-1NL4-3 obtained from plasmid transfection was treated with DNase I (2.5 U/mL) for 2 h at 37°C to remove the plasmid DNA. […] Sixteen hours after infection, the cell cytosolic DNA was isolated under RNase A treatment, and the RT products (cytosolic viral cDNA) were quantified using RT-qPCR and the following primers: gag forward, 5′-[…]-3′, gag reverse, 5′-[…]-3′; 18S rRNA forward, 5′-[…]-3′, 18S rRNA reverse, 5′-[…]-3′. The relative levels of RT products were analyzed using the ΔΔCt-method, as described above. In vitro integrase activity was determined using an HIV-1 integrase assay kit (XpressBio, Frederick, MD, USA) as previously described ([12]). In brief, a 96-well plate coated with donor substrate DNA was blocked, and HIV-1 integrase was then added to the plate. Subsequently, the compounds and target substrate DNA were added to the plate and incubated for 30 min at 37°C. The plate was washed and subsequently incubated with horse radish peroxidase. Integrase activity was measured by the peroxidase activity with the substrate at an optical density of 450 nm. The experiment was performed in triplicates. Detection of integrated proviral DNA was performed as previously described ([69]) with some minor modifications. […] Chromosomal DNA was purified using the G-Spin DNA extraction kit (Intron Bio Tech, Seongnam-si, Gyeonggi-do, Republic of Korea). The integrated proviral HIV-1 DNA was detected by nested Alu-PCR amplification using the following primers: first round PCR, Alu forward, 5′-[…]-3′, pol reverse, 5′-[…]-3′; second round PCR, gag forward, 5′-[…]-3′, pol reverse. gapdh was used as the control gene.

[4] = Cell viability of TZM-bl cells (PrestoBlue); assay type: cell-based; conditions: human
[5] = Human immunodeficiency virus 1, TZM-bl, Table S1, WT virus, TZM-bl, read-out: EC50
[6] = Human immunodeficiency virus 1, TZM-bl, 48 h, Table S1, WT virus, TZM-bl, fivefold serial dilutions, MOI 1, 48 h, read-out: EC50

For `C[C@@H]1CCO[C@H]2Cn3cc(C(=O)NCc4ccc(F)cc4F)c(=O)c(O)c3C(=O)N12` [DTG, dolutegravir, reference compound], the EC50 (HIV-1NL4-3 [1]; [5]) was 1 nM, the “time of administration after infection at which effectiveness began to decrease / was lost” value (from here on “time of administration … to decrease / was lost”) (HIV-1NL4-3 [2]) was 10 h and the “nested Alu-PCR band for integrated proviral DNA” value (from here on “nested Alu-PCR band”) [3] was “not detected”.

With `Cc1[nH]c2ccc(-c3nnc(SCC(=O)N4CCCC4)o3)cc2c1C` [Compound 13, 2-((5-(2,3-Dimethyl-1H-indol-5-yl)-1,3,4-oxadiazol-2-yl)thio)-1-(pyrrolidin-1-yl)ethan-1-one] the EC50 (HIV-1NL4-3 [1]; Human immunodeficiency virus 1, TZM-bl, 48 h, TZM-bl cells infected with HIV-1NL4-3 at MOI 1, 48 h, F-Luc, mean ± SD) was 180 ± 50 nM, the EC50 (HIV-1NL4-3 [1]; [6]) was 200 ± 20 nM and the “SI (CC50/EC50)” value (HIV-1NL4-3 [1]; TZM-bl cells) was 196.33. The EC50 (HIV-1NL4-3 [1]; TZM-bl cells infected with HIV-1NL4-3 at MOI 1, 48 h, F-Luc, mean ± SD, read-out: EC50) was 240 ± 30 nM, the CC50 at 48 h [4] was 47100 ± 7720 nM and the “time of administration … to decrease / was lost” value (HIV-1NL4-3 [2]) was 24 h. The “nested Alu-PCR band” value [3] was “observed”.

In the case of `Cc1[nH]c2ccc(-c3nnc(SCC(=O)N4CCCCC4)o3)cc2c1C` [Compound 9, 2-((5-(2,3-Dimethyl-1H-indol-5-yl)-1,3,4-oxadiazol-2-yl)thio)-1-(piperidin-1-yl)ethan-1-one], the EC50 (HIV-1NL4-3 [1]; Human immunodeficiency virus 1, TZM-bl, 48 h, TZM-bl cells infected with HIV-1NL4-3 at MOI 1, 48 h, F-Luc, mean ± SD, read-out: EC50) is reported as 170 ± 20 nM, the EC50 (HIV-1NL4-3 [1]; [6]) is reported as 130 ± 20 nM and the EC90 (HIV-1NL4-3 [1]; Human immunodeficiency virus 1, TZM-bl cells, read-out: approximate EC90) is reported as roughly 1500 nM. For the same molecule, the “SI (CC50/EC50)” value (HIV-1NL4-3 [1]; TZM-bl cells) was 371.76, the CC50 at 48 h [4] was 63200 ± 5940 nM and the “time of administration … to decrease / was lost” value (HIV-1NL4-3 [2]) was 24 h. The “nested Alu-PCR band” value [3] was “observed”.

In the case of `CC(C)[C@]12O[C@H]1[C@@H]1O[C@]13[C@]1(O[C@H]1C[C@H]1C4=C(CC[C@@]13C)C(=O)OC4)[C@@H]2O` [triptolide, reference compound], the EC50 (HIV-1NL4-3 [1]; Human immunodeficiency virus 1, TZM-bl, 48 h, TZM-bl cells infected with HIV-1NL4-3 at MOI 1, 48 h, read-out: EC50) is reported as 0.38 ± 0.07 nM, the “SI (CC50/EC50)” value (HIV-1NL4-3 [1]; TZM-bl cells) is reported as 52.63 and the CC50 at 48 h ([4]; TZM-bl cells, absence of HIV-1 infection, mean ± SD, read-out: CC50) is reported as 20 nM. The “time of administration … to decrease / was lost” value (HIV-1NL4-3 [2]) was 24 h.

With `O=C1Nc2ccc(Cl)cc2[C@@](C#CC2CC2)(C(F)(F)F)O1` [EFV, efavirenz, reference compound] the EC50 (HIV-1NL4-3 [1]; [5]) was less than 1 nM, the “time of administration … to decrease / was lost” value (HIV-1NL4-3 [2]) was 8 h and the “nested Alu-PCR band” value [3] was “not detected”.

Reference: article PMC11459959, “Discovery of new acetamide derivatives of 5-indole-1,3,4-oxadiazol-2-thiol as inhibitors of HIV-1 Tat-mediated viral transcription” (Antimicrobial Agents and Chemotherapy, 2024)
